In ChEMBL document CHEMBL5120769, “Sclerotiamides C-H, Notoamides from a Marine Gorgonian-Derived Fungus with Cytotoxic Activities” (J Nat Prod, 2022):
The source made the active and inactive calls. The calls are words filed in the database; no cut-off is given here.

Legend:
A549 = experiment: Cytotoxicity against human A549 cells assessed as reduction in cell viability by MTT assay; format: functional, cell-based
HepG2 = experiment: Cytotoxicity against human HepG2 cells assessed as reduction in cell viability by MTT assay; format: functional, cell-based
HeLa [1] = experiment: Cytotoxicity against human HeLa cells assessed as reduction in cell viability by MTT assay; format: functional, cell-based
SMMC-7721 = experiment: Cytotoxicity against human SMMC-7721 cells assessed as reduction in cell viability by MTT assay; format: functional, cell-based
HeLa [2] = experiment: Induction of apoptosis in human HeLa cells assessed as increase in Bax protein expression at 1 to 10 uM after 24 hrs by Western blot analysis; format: functional, cell-based; settings: dose 1-10 µM, DDE = dose-dependent effect
HeLa [3] = experiment: Induction of apoptosis in human HeLa cells assessed as increase in cytochrome C protein expression at 1 to 10 uM after 24 hrs by Western blot analysis; format: functional, cell-based; settings: dose 1-10 µM, DDE = dose-dependent effect
HeLa [4] = experiment: Induction of apoptosis in human HeLa cells assessed as decrease in Bcl-2 protein expression at 1 to 10 uM after 24 hrs by Western blot analysis; format: functional, cell-based; settings: dose 1-10 µM, DDE = dose-dependent effect
HeLa [5] = experiment: Activation of MAPK signalling pathway in human HeLa cells assessed as increase in ERK phosphorylation level at 1 to 10 uM after 24 hrs by western blot analysis; format: cell-based; settings: filed as activator, dose 1-10 µM, DDE = dose-dependent effect
HeLa [6] = experiment: Induction of apoptosis in human HeLa cells assessed as increase in cleaved PARP protein expression at 1 to 10 uM after 24 hrs by Western blot analysis; format: functional, cell-based; settings: dose 1-10 µM, DDE = dose-dependent effect
HeLa [7] = experiment: Activation of MAPK signalling pathway in human HeLa cells assessed as increase in JNK phosphorylation level at 1 to 10 uM after 24 hrs by western blot analysis; format: cell-based; settings: filed as activator, dose 1-10 µM, DDE = dose-dependent effect
HeLa [8] = experiment: Induction of mitochondrial membrane potential loss in human HeLa cells at 1 to 10 uM after 24 hrs by JC1 staining based flow cytometric analysis; format: functional, cell-based; settings: dose 1-10 µM
HeLa [9] = experiment: Induction of cell cycle arrest in human HeLa cells assessed as accumulation at G2 phase at 1 to 5 uM after 24 hrs by Propidium iodide staining based flow cytometric analysis (reference value: 23%); format: functional; settings: dose 1-5 µM
HeLa [10] = experiment: Induction of apoptosis in human HeLa cells assessed as nuclear condensation at 1 to 10 uM after 24 hrs by Hoechst 33342 staining based fluorescence microscopic assay; format: functional, cell-based; settings: dose 1-10 µM
HeLa [11] = experiment: Inhibition of colony formation in human HeLa cells assessed as reduction in cell colonies at 4 uM after 10 days by crystal violet staining based assay relative to control; format: functional; settings: time 10.0 day, DDE = dose-dependent effect
HeLa [12] = experiment: Induction of apoptosis in human HeLa cells assessed as increase in late apoptotic cells at 1 to 10 uM after 24 hrs by Annexin V staining based flow cytometric analysis; format: functional, cell-based; settings: dose 1-10 µM
HeLa [13] = experiment: Induction of apoptosis in human HeLa cells assessed as increase in p53 protein expression at 1 to 10 uM after 24 hrs by Western blot analysis; format: functional, cell-based; settings: dose 1-10 µM, DDE = dose-dependent effect
HeLa [14] = experiment: Induction of apoptosis in human HeLa cells assessed as increase in caspase 3 protein expression at 1 to 10 uM after 24 hrs by Western blot analysis; format: functional, cell-based; settings: dose 1-10 µM, DDE = dose-dependent effect
HeLa [15] = experiment: Activation of MAPK signalling pathway in human HeLa cells assessed as increase in p38 phosphorylation level at 1 to 10 uM after 24 hrs by western blot analysis; format: cell-based; settings: filed as activator, dose 1-10 µM, DDE = dose-dependent effect
HeLa [16] = experiment: Induction of apoptosis in human HeLa cells assessed as increase in early apoptotic cells at 1 to 10 uM after 24 hrs by Annexin V staining based flow cytometric analysis; format: functional, cell-based; settings: dose 1-10 µM
HeLa [17] = experiment: Induction of ROS generation in human HeLa cells at 1 to 10 uM after 24 hrs by DCFH-DA staining based fluorescence microscopic assay; format: functional, cell-based; settings: dose 1-10 µM

SMILES	IC50 (A549)	IC50 (HepG2)	IC50 (HeLa [1])	IC50 (SMMC-7721)	further results
CC1(C)C=Cc2c(ccc3c2N2O[C@@H]4O[C@@]2(C3=O)C(C)(C)C2C[C@]35CCCN3C(=O)C24NC5=O)O1 (some centres undefined)	> 10 µM	> 10 µM	> 10 µM	> 10 µM	
CC1(C)C=Cc2c(ccc3c2[N+]([O-])=C2C(C)(C)C4C[C@]56CCCN5C(=O)C4(NC6=O)[C@@H](O)[C@@]23O)O1 (some centres undefined)	> 10 µM	> 10 µM	> 10 µM	> 10 µM	
CC1(C)C=Cc2c(ccc3c4c(n(O)c23)C(C)(C)[C@@H]2C[C@]35CCCN3C(=O)[C@]23[C@H]4NC(C)(C)N3C5=O)O1	1.6 µM	1.8 µM	1.7 µM	1.5 µM	Activity (HeLa [2]): Dde; Activity (HeLa [3]): Dde; Activity (HeLa [4]): Dde; Activity (HeLa [5]): Dde; Activity (HeLa [6]): Dde; Activity (HeLa [7]): Dde; Activity (HeLa [8]): Active; Activity (HeLa [9]): 38%; Activity (HeLa [10]): Active; inhibition (HeLa [11]): Dde; Activity (HeLa [12]): Active; Activity (HeLa [13]): Dde; Activity (HeLa [14]): Dde; Activity (HeLa [15]): Dde; Activity (HeLa [16]): Active; Activity (HeLa [17]): Active
Cc1c(O)c(C)c2oc(=O)c(C3=C4C(=[N+]([O-])c5c4ccc4c5C=CC(C)(C)O4)C(C)(C)[C@@H]4C[C@]56CCCN5C(=O)[C@]34NC6=O)c(O)c2c1C	> 10 µM	> 10 µM	> 10 µM	> 10 µM	
CC1(C)C=Cc2c(ccc3c4c([nH]c23)C(C)(C)[C@@H]2C[C@]35CCCN3C(=O)[C@]23[C@H]4NC(C)(C)N3C5=O)O1	> 10 µM	> 10 µM	> 10 µM	> 10 µM	
Cc1c(O)c(C)c2oc(=O)c3c(c2c1C)O[C@@]12C(=[N+]([O-])c4c1ccc1c4C=CC(C)(C)O1)C(C)(C)[C@@H]1C[C@]45CCCN4C(=O)[C@]1(NC5=O)[C@H]32	7.8 µM	8.1 µM	7.9 µM	6.7 µM	
CC(=O)O[C@H]1C(=O)[C@@]2(C)[C@H]([C@H](OC(=O)c3ccccc3)[C@]3(O)C[C@H](OC(=O)[C@H](O)[C@@H](NC(=O)c4ccccc4)c4ccccc4)C(C)=C1C3(C)C)[C@]1(OC(C)=O)CO[C@@H]1C[C@@H]2O [PACLITAXEL]	0.05 µM	0.06 µM	0.05 µM	0.07 µM	
